Columns and labels:
Assay type in all cases: cell-based, human
PBMC [1] = assay: DNA synthesis ([3H]thymidine incorporation) in PHA-stimulated PBMC; settings: PBMC cultured 72 hours with PHA 1 µg/ml; for inhibition of DNA synthesis: result in words
Procedure: The PBMCs were obtained by standard density gradient centrifugation of heparinized human venous blood through a Ficoll-Hypaque cushion. The cells were composed of 90% lymphocytes and 10% monocytes as assessed by acridine orange staining.
DNA Synthesis. The cells were re-suspended in RPMI + 5% FCS and spread on 3072 Falcon microtiter plates at a density of 10⁵ cells in 0.2 ml of final volume. They were cultured for 72 hours at 37°C with PHA 1 µg/ml in the presence or absence of phospholipids. The cells were marked with 1 uCi/well of [³H]thymidine for the last 18 hours culture before being collected on filter paper and counted in a scintillation counter.

IL-2 receptor = assay: Flow cytometry of IL-2 receptor expression on PHA-stimulated PBMC; settings: 72 hours, PHA 1 µg/ml, PS 60 nmol/10⁶ cells; PHA alone 77%
Procedure: (§1) To confirm the DNA synthesis parameter data obtained, a second lymphocyte activity parameter was analysed - the expression of the IL-2 and transferrin receptors on the cell membrane.
(§2) To this purpose, after incubation with PHA 1 µg/ml for 72 hours in the presence or absence of PS, the cells were stained with fluorescent monoclonal antibodies against the above receptor, and then analysed on a FAC Star (Beckton-Dickinson) flow cytometer equipped with an argon ion laser operating at 480 nm and 200 mw.
(§3) 10⁵ PBMC were cultured for 72 hours with PHA 1 µg/ml in the presence or absence of PS 60 nmol/10⁶ cells. Fluorescence intensity (receptor expression) and light diffusion (cell size) were measured using flow cytometry. The data are reported as percentage of cells located in the shown region.

transferrin receptor = assay: Flow cytometry of transferrin receptor expression on PHA-stimulated PBMC; settings: 72 hours, PHA 1 µg/ml, PS 60 nmol/10⁶ cells; PHA alone 54%
Procedure: as §1, §2, §3

PBMC [2] = assay: Trypan blue exclusion test of cell viability; settings: PHA activated PBMC
Procedure: To exclude cytotoxic effect of used derivatives, cell viability (> 99%) was tested before, during, and after the incubation by the trypan blue exclusion test.

Compound | inhibition of DNA synthesis (PBMC [1]) | other results
CCCCCCCC/C=C\CCCCCCCC(=O)OC[C@H](COP(=O)(O)OC[C@H](N)C(=O)O)OC(=O)CCCCCCC/C=C\CCCCCCCC [Dioleyl PS, dioleyl-PS] | same activity as PS containing L-serine | 
CCCCCCCCCCCCCCCC(=O)OCC(COC(=O)CCCCCCCCCCCCCCC)OP(=O)(O)OC[C@H](N)C(=O)O [PS-S1, 1,3-dipalmitoylglycero-2-phosphoryl-L-serine, reference compound] | do not inhibit DNA synthesis, but slightly stimulate it | 
CCCCCCCC/C=C\CCCCCCCCOCC(COCCCCCCCC/C=C\CCCCCCCC)OP(=O)(O)OC[C@H](N)C(=O)O [PS-S10, 1,3-dioleylglycero-2-phosphoryl-L-serine] | same activity as PS containing L-serine | 
CCCCCCCCCCCCCC(=O)OC[C@H](COP(=O)(O)OC[C@H](N)C(=O)O)OC(=O)CCCCCCCCCCCCC [dimyristoyl PS, dimyristoyl-PS, reference compound] | do not inhibit DNA synthesis, but slightly stimulate it | 
CCCCCCCCCCCCCCCC(=O)OC[C@H](COP(=O)(O)OC[C@H](N)C(=O)O)OC(=O)CCCCCCCCCCCCCCC [dipalmitoyl PS, dipalmitoyl-PS, reference compound] | do not inhibit DNA synthesis, but slightly stimulate it | 
phosphatidic acid [PA, reference compound] | totally inactive | 
phosphatidylcolin [PC, reference compound] | totally inactive | 
phosphatidylglycerol [PG, reference compound] | totally inactive | 
phosphatidylinositol [PI] | active | 
phosphatidylserine [PS] | marked inhibition | lymphocytes expressing IL-2 receptors (IL-2 receptor): 15%; lymphocytes expressing transferrin receptors (transferrin receptor): 20%; Cell viability (PBMC [2]): not affected; IC50 (PBMC [1]; corresponds to 30 nmol PS/10⁶ cells, read-out: 50% of the maximum effect, concentration of PS in the medium): 15 µM; 50% of the maximum effect (inhibition of DNA synthesis) (PBMC [1]; phospholipid as liposomes): 30 nmol/10⁶ cells

Reference: patent publication EP0516034A1, “Pharmaceutical compositions with immunosuppresive properties” (FIDIA S.p.A., priority 1991, dated 1992)
